Results taken from US8222008B2, “Methods and compositions for treating cancer” (The Administrators of The Tulane Educational Fund, priority 2003, dated 2012).

How the values were obtained:
normal fibroblasts = assay: Lysosomal cystine content, cystine binding protein assay; assay type: cell-based, human
Method: Intracellular lysosomal free cystine was determined using a cystine binding protein (CBP) assay (Oshima et al, 1974 J. Biol. Chem., 249:6033-6039). CBP was procured from Riverside Scientific. The assay has a sensitivity of 0.1 μM. Total cell protein was determined by a modification of the Lowry method (Lowry O. et al 1951 J. Biol. Chem., 193:265-275). Statistical analyses were performed using paired t test for means with SSPS for Windows. Results are mean+/−1.0 SD (FIG. 3).
Normal fibroblast lysosomes were loaded with cystine by the addition of 0.5 mM cystine dimethylester (CDME, Sigma) to normal culture medium for 1 hour before treatment (Pisoni, R L, et al, 1992 Somat. Cell. Mol. Genet., 18:1-6). The cells were treated with apoptotic triggers, leaving CDME in the medium to prevent lysosomal cystine loss, and then analyzed for apoptosis.
The lysosomal cystine content of normal fibroblasts was also altered as follows. Normal fibroblasts also at passage 7-13 were pretreated with 0.5 mM CDME for 1 hour, increasing the cystine content of their lysosomes to the cystinotic range (0.47 to 1.95 nmol of cystine per mg of protein). […]
In another experiment, the cystine content was decreased in cystinotic cells from 2.3 to 0.5 nmols cystine/10^6 cells by pretreatment with MEA before incubation in cystine-free and serum-free Ham F12 medium. […] Cells were stained with CaspACE and analyzed. […]

[1] = test system: human renal proximal tubule epithelial cells; assay: Effect of various compounds on apoptosis, CaspASE staining and FACS; assay type: cell-based
Method: Normal and cystinotic fibroblasts were purchased from the Coriell Mutant Cell Repository, and cultured in Coon modification of Ham F12 medium, supplemented with 10% fetal calf serum (FCS). Renal proximal tubule epithelial (RPTE; Biowhittaker Corp.) were cultured in renal epithelial basal medium supplemented with one Singlequots™ kit (Biowhittaker) per 500 mL to make renal epithelial growth media (REGM, Biowhittaker). Fibroblasts and RPTE were maintained in a 5% carbon dioxide, 95% air, humidified incubator at 37° C. (Thoene J. G. et al, 1976 J. Clin. Invest, 58:180-189).
Cultured human renal proximal tubule epithelial cells were incubated with various apoptotic compounds at a concentration of 0.5 mM for 16 hours. Following incubation, cells were stained with CaspASE. Fluorescence-activated cell sorting (Beckman Coulter Epics Elite) was used to determine the percentage of cells undergoing apoptosis from each treatment group.

[2] = test system: renal proximal tubule epithelial (RPTE) cells; assay: Time course of apoptosis, TUNEL (FIG. 3); assay type: cell-based, human
Method: FIG. 3 is a graph showing the effect of CDME on apoptosis in renal proximal tubule epithelial (RPTE) cells. Semi-confluent RPTE cells were treated with either 0.25 mM CDME or TNF-a, harvested at 0.5, 1, 3, and 6 hours, stained with TUNEL, and enumerated by fluorescence microscopy. Each experiment was done in triplicate. The control (time 0) cystine content was 0.6 nmol/mg protein. After 1 hour incubation, the cystine content was 2.2 nmol/mg protein.
2. TUNEL Assay • The TUNEL assay employs terminal deoxynucleotidyl transferase (TdT) to label the ends of double stranded DNA breaks, which occur in apoptotic cells, with FITC-conjugated dUTP. Cells were fixed in 4% buffered formalin, washed, incubated in permeabilization solution (0.1% Triton X-100 in 0.1% Na Citrate) for 2 minutes on ice and then stained with 25 μL of TdT/45 μL of labeled dNTP mix for 40 minutes at 37° C. The cells were visually enumerated by fluorescence microscopy, scoring a minimum of five fields (250 to 300 cells) for fluorescence in triplicate followed by counting all cells in the same field by light microscopy, with a minimum of 750 cells scored per condition. The apoptosis rate is the total number of cells that fluoresce divided by the total cells in the field. […]

MCF-7 (ER+) = assay: Apoptosis in breast cancer cell lines, CaspACE assay with flow cytometry; assay type: cell-based, human; settings: CDME 500 μM, 16 hours
Source text: (§1) The apoptotic effect of CDME was compared to that of tamoxifen using the CaspACE™ assay system (Promega) and conventional flow cytometry techniques.
(§2) All cell lines were obtained from the American Type Culture Collection, P.O. Box 1549, Manassas, Va., 20108 unless otherwise indicated. The cell lines studied were estrogen receptor-negative breast cancer cell lines MDA-MB-231 (ATCC Accession No. HTB-26) and MDA-MB-468 (ATCC Accession No. HTB-132) and estrogen receptor-positive breast cancer cell lines, MCF-7 (ATCC Accession No. HTB-22) and T-47D (ATCC Accession No. HTB-133).
(§3) All cell lines were grown on the bottom of 12-well flasks in Gibco RPMI-1640, until they reached the confluency of about 50%. After that, the medium was exchanged with DMEM (Sigma, D-5030), supplemented with 10% charcoal-treated FBS.
(§4) After four days (at confluency of about 75%), cells were treated by exposure to either CDME (500 μM) or tamoxifen (100 μM) or neither for 16 hours at 37° C. CaspACE™ assay analysis of the treated and control cells was performed as described in Example 2 and measured via flow cytometry. Note that the dosage of tamoxifen was a maximum positive control dose, higher than that normally administered for chemotherapy.

MDA-MB-231 (ER−) = assay: as above; assay type: cell-based, human; settings: CDME 500 μM, 16 hours
Source text: as §1, §2, §3, §4

MDA-MB-468 (ER−) = assay: as above; assay type: cell-based, human; settings: CDME 500 μM, 16 hours
Source text: as §1, §2, §3, §4

T-47D (ER+) = assay: as above; assay type: cell-based, human; settings: CDME 500 μM, 16 hours
Source text: as §1, §2, §3, §4

SMILES: COC(=O)[C@@H](N)CSSC[C@H](N)C(=O)OC [CDME, cystine dimethyl ester]
- cystine content after treatment with CDME (normal fibroblasts; increased from 0.4, before serum withdrawal): 1.3 nmols cystine/10^6 cells
- cystine content after pre-exposure to CDME (normal fibroblasts; normal content <0.1 nmol/mg protein, UV light experiment): 1.95 nmol/mg protein
- toxicity to RPTE cells ([1]; 0.5 mM (concentration employed in fibroblasts)): toxic
- percentage of cells undergoing apoptosis ([1]; RPTE cells, method states 0.5 mM for 16 hours, CaspASE, FACS): 39.7%
- rate of apoptosis compared with TNF-a alone ([2]; 0.25 mM CDME alone): equal to that induced by exposure to TNF-a alone
- time to maximum rate of apoptosis ([2]; CDME, followed by lysis and release from the dish): ≤ 6 h
- percent of apoptotic cells (±S.D.) (MCF-7 (ER+)): 6.16 ± 1.80%
- percent of apoptotic cells (±S.D.) (MDA-MB-231 (ER−)): 99.32 ± 0.22%
- percent of apoptotic cells (±S.D.) (MDA-MB-468 (ER−)): 44.88 ± 13.52%
- percent of apoptotic cells (±S.D.) (T-47D (ER+)): 7.78 ± 4.19%
